From patent US20020013282A1, “CATIONIC AMPHIPILE COMPOSITIONS FOR INTERACELLUAR DELIVERY OF THERAPEUTIC MOLECULES” (priority 1995, published 2002)

Tests used:
lungs of balb/c mice = system: lungs of balb/c mice
Experimental: This assay was used to assess the ability of the cationic amphiphiles of the invention to transfect cells in vivo from live specimens. In the assay, the lungs of balb/c mice were instilled intra-nasally (the procedure can also be performed trans-tracheally) with 100 μl of cationic amphiphile: DNA complex, which was allowed to form during a 15-minute period prior to administration according to the following procedure. The amphiphile (premixed with co-lipid, see below) was hydrated in water for 10 minutes, a period sufficient to yield a suspension at twice the final concentration required. This was vortexed for two minutes and aliquoted to provide 55 microliter quantities for each mouse to be instilled. Similarly, DNA encoding the reporter (CAT) gene was diluted with water to a concentration twice the required final concentration, and then aliquoted at 55 microliters for each mouse to be instilled. The lipid was gently combined with the DNA (in a polystyrene tube), and the complex allowed to form for 15 minutes before the mice were instilled therewith.
The plasmid used (pCMVHI-CAT, see Example 4) provides an encoding DNA for chloramphenicol transferase enzyme. Specifics on the amphiphile: DNA complexes are provided below.
Two days following transfection, mice were sacrificed, and the lungs and trachea removed, weighed, and homogenized in a buffer solution (250 mM Tris, pH 7.8, 5 mM EDTA). The homogenate was clarified by centrifugation, and the deacetylases therein were inactivated by heat treatment at 70° C. for 10 minutes. Lysate was incubated overnight with acetyl coenzyme A and C^14-chloramphenicol. CAT enzyme activity was then visualized by thin layer chromatography (“TLC”) following an ethyl acetate extraction.
The presence of the enzyme CAT will cause an acetyl group to be transferred from acetylcoenzyme A to C^14-chloramphenicol. The acetylated/radiolabeled chloramphenicol migrates faster on a TLC plate and thus its presence can be detected.
With respect to the comparison provided by FIG. 10, the following conditions are of note. The transfection solution for spermidine cholesterol carbamate contained 6 mM DNA measured as concentration of nucleotide, and 1.5 mM of cationic amphiphile. […] For transfection with DC-chol, the molar ratio of DC-chol to DOPE was 3:2, and the concentrations of cationic amphiphile and of DNA (as nucleotide) were 1.3 mM and 0.9 mM, respectively. For transfection with DMRIE, the molar ratio of DMRIE to DOPE was 1:1 and the concentrations of cationic amphiphile and of DNA were 1.7 mM and 1.2 mM, respectively.
Additional experiments were performed to compare in vivo the transfection efficiency of cationic amphiphiles depicted in FIGS. 1, 5 and 7. […] The compounds were administered intra-nasally using between 12 and 15 mice per compound. As in part A above, ng CAT activity was measured per 100 mg of tissue. […] Construction of pCF1/CAT and pCF2/CAT is described below in Example 4.
The in vivo data reported in FIGS. 13, 14 and 15 were compiled generally as follows. As aforementioned, FIGS. 10 and 11 report data from the complete in vivo optimization of amphiphile No. 53. Amphiphile No. 67 was subjected to a similar partial optimization. With respect to all of the other cationic amphiphiles reported on, and taking advantage of numerous structural similarities, optimized compositions for in vivo testing were extrapolated from in vitro results.

[1] = Zeta potential of amphiphile/DNA complex; type: physicochemical; conditions: 1:1 with DOPE
Experimental: Zeta potentials of the samples can be measured (using typically 5 measurements per sample) employing a Malvern Zetasizer 4 (Malvern Instruments, Southborough, Mass.) and a zeta cell (AZ-104 cell, Malvern Instruments Co.). Dried lipid films containing the cationic lipid and DOPE are hydrated in distilled water (dH2O). DNA typically should be diluted to a concentration of about 300 μM in dH2O. The DNA solution (1.5 mL) can then be added to an equal volume of cationic lipid vesicles and incubated at room temperature for 10 min. Enough NaCl (for example, 4 mM stock) may be added to result in a final concentration of 1 mM NaCl. If necessary, the sample can be diluted further with 1 mM NaCl (to maintain a photomultiplier signal below 4000 counts per second), and distilled water can be used in place of the NaCl solutions.

[2] = system: Immortalized human cystic fibrosis airway cells (CFT-1); assay: SPQ assay of cAMP-stimulated Cl− channel activity after transfection with pCMV-CFTR; type: cell-based; conditions: amphiphile:DOPE 1:1, 10.5 μmolar each, 30 μmolar pCMV-CFTR; 48 hours after transfection
Experimental: Immortalized human cystic fibrosis airway cells (CFT-1, as above) were used.
In preparation for the assay, the cells were grown on glass coverslips until approximately 60% confluent. The cells were then transfected with a complex of spermidine cholesterol carbamate: DOPE (1:1) and a plasmid(pCMV-CFTR) containing a cDNA that encodes wild type human CFTR. pCMV-CFTR plasmid is a construct containing the encoding sequence for CFTR and the following regulatory elements, a CMV promoter and enhancer, and an SV40 polyadenylation signal. Additional constructs suitable for the practice of this example include pMT-CFTR, Cheng et al., Cell. 63, 827-834 (1990). The complex used was 10.5 μmolar of spermidine cholesterol carbamate (also of DOPE) and 30 μmolar of pCMV-CFTR based on nucleotide.
48 hours after amphiphile-mediated transfection, cells were tested for cAMP-stimulated Cl^−channel activity using the 6methoxy-N-(3-sulfopropyl)quinolinium (“SPQ”) assay. […] In the assay, cAMP-dependent Cl^−channel activity was assessed using “SPQ” (from Molecular Probes, Eugene, Oreg.), a halide-sensitive fluorophore. Increases in halide permeability results in a more rapid increase in SPQ fluorescence, and the rate of change (rather than the absolute change in fluorescence) is the important variable in assessing Cl^−permeability. […]

[3] = system: CFT-1 cell line (human cystic fibrosis bronchial epithelial cells); assay: Cell transfection assay (β-galactosidase expression from pCMVβ); type: cell-based; conditions: amphiphile:DOPE 1:1, CFT-1 cells
Experimental: Separate 3.35 μmole samples of spermidine cholesterol carbamate (amphiphile No. 53) and the neutral lipid dioleoylphosphatidylethanolamine (“DOPE”) were each dissolved in chloroform as stock preparations. Following combination of the solutions, a thin film was produced by removing chloroform from the mixture by evaporation under reduced pressure (20 mm Hg). The film was further dried under vacuum (1 mm Hg) for 24 hours.
The resulting suspension was then diluted with 4 ml of water to yield a solution that is 670 μM in cationic amphiphile and 670 μM in neutral colipid.
For preparation of the transfecting solution, DNA encoding for β- galactosidase (pCMVβ, ClonTech., Palo Alto, Calif.) was dissolved in OptiMEM culture medium (Gibco/BRL No. 31885-013).
The resulting 335 μM solutions were then serially diluted 7 times to generate 8 separate amphiphile-containing solutions having concentrations ranging from 335 μM to 2.63 μM, with each resultant solution having a volume of 165 μl. Thus, 64 solutions were prepared in all, there being 8 wells each of 8 different concentrations of amphiphile/DOPE. […]

BALB/c mouse = assay: Intravenous delivery of CAT reporter transgene, organ targeting (lung, heart); type: in vivo
Experimental: The reporter plasmid pCF-1 CAT (Example 4) was used and was purified to minimize endotoxin (<1 EU/mg pDNA), and also chromosomal DNA contamination (<2%). Amphiphile No. 53 (1:1 with DOPE)/DNA complex was prepared according to the procedures of Example 3. The amphiphile was provided as the free base, the plasmid was prepared as a sodium salt in water, and the DOPE was provided in zwitterionic form.
The animal model was the BALB/c mouse. Females 6-8 weeks old weighing 16-18 g were injected intravenously using the tail vein, using 5 animals per group. The volume of lipid: pDNA complex used was 100 μl in all experiments. Unless noted otherwise, mice were sacrificed 48 h following administration of the complex. Organs were frozen immediately on dry ice to store for subsequent analysis.
Expression of chloramphenicol acetyl transferase (CAT) was quantitated using a radiochemical assay for CAT enzymatic activity. Organs were weighed and homogenized on ice in a lysis buffer containing protease inhibitors. The lysate was freeze-thawed 3X, centrifuged, and heated to 65° C. to inactivate deacetylases before adding it to a reaction mixture containing ^14C-chloramphenicol. […] Spots corresponding to the acylated reaction products were quantitated (Betagen) and converted to ng CAT activity using authentic CAT standards. […]

[4] = Transacylation reaction of amphiphile with co-lipid DOPE on co-storage; type: physicochemical
Text: Although heretofore unrecognized in the art, it has been determined also that certain co-lipids may react chemically with certain types of cationic amphiphiles under conditions of co-storage, there resulting new molecular species. Generation of such new species is believed to occur via mechanisms such as transacylation. In this regard, see FIG. 4 which depicts a transacylation reaction involving spermidine cholesterol carbamate(No.67) and DOPE, there resulting lyso PE species and multiple forms of particular acyl-cationic amphiphile (designated No. 80).
With respect to such reactions, the following remarks are of interest. […] It is expected that these phenomena would also apply to lyophilized amphiphile/DOPE preparations.
Accordingly, it is highly preferred to maintain such amphiphile/DOPE preparations at very cold temperatures, such as −70 degrees C.

[5] = Transgene expression by protonation state of the amphiphile in transfecting composition with DOPE; conditions: for transgene expression activity: with DOPE
Experimental: With respect to amphiphile No. 67 (spermidine cholesterol carbamate), it has been observed that when providing this amphiphile for a transfecting composition with DOPE (itself provided as a zwitterion), transgene expression was best for the free base, but decreased if the amphiphile was prepared as an acetate salt. […] Under the circumstances described, the plasmid DNA provided for contacting with the amphiphile was prepared (without buffer) as a sodium salt in water.

[6] = 0.6 mM amphiphile, 0.6 or 1.2 mM DOPE, 3.6 mM plasmid DNA
[7] = 1.0-1.5 mM amphiphile, cholesterol 1:1, DNA 4.0-6.0 mM, pCMVHI-CAT, intra-nasal

**Q.** Which “improvement in reporter gene expression, free base form versus fully protonated hydrochloride salt” value (lungs of balb/c mice; [6]) does the source give for `CC(C)CCCC(C)C1CCC2C3CC=C4CC(OC(=O)NCCCNCCCCN)CCC4(C)C3CCC12C` (centres unmarked) [amphiphile No. 37, N^1-spermidine cholesteryl carbamate] here?
**A.** ~50 fold

**Q.** And the “reporter gene expression, free base form compared to fully protonated hydrochloride salt” value (lungs of balb/c mice; [6])?
**A.** dramatically increased

**Q.** With `CC(C)CCCC(C)C1CCC2C3CC=C4CC(OC(=O)N(CCCN)CCCCN)CCC4(C)C3CCC12C` (centres unmarked) [amphiphile No. 53, N^4-spermidine cholesteryl carbamate] as the compound, how does the “zeta potential of the complex” value ([1]; amphiphile/DNA molar ratio less than about 0.5) read?
**A.** about −30 mV

**Q.** What about the “zeta potential of the complex” value ([1]; amphiphile/DNA ratio of 1.25) of the same compound?
**A.** about +30 mV

**Q.** And the “cells exhibiting measurable cAMP-stimulated Cl− channel activity” value [2]?
**A.** Approximately 60%

**Q.** And the “enhancement of in vivo transfection (ng CAT activity per 100 mg tissue) in relation to DMRIE and DC-Chol” value (lungs of balb/c mice; 1.5 mM amphiphile, 1:1 DOPE, 6 mM DNA (pCMVHI-CAT), intra-nasal, 2 days)?
**A.** ≥ 20 fold

**Q.** And the “transfection enhancement in relation to N^1-spermidine cholesteryl carbamate” value (lungs of balb/c mice; 6 mM DNA (as nucleotide), 1.5 mM amphiphile, 1.5 mM co-lipid, procedures of Example 3 part B)?
**A.** about 30 fold

**Q.** What about the “transfection efficiency (ng CAT/100 mg tissue) with cholesterol as co-lipid compared with DOPE as co-lipid” value (lungs of balb/c mice; [7]) of the same compound?
**A.** less effective

**Q.** And the “transfection with cholesterol as co-lipid compared with DC-Chol/DOPE” value (lungs of balb/c mice; [7])?
**A.** substantially more effective

**Q.** And the “toxicity to the target cells” value (lungs of balb/c mice; about 0.75 mM amphiphile, 3.0 mM plasmid, versus 1.5 mM / 6 mM)?
**A.** less toxic

**Q.** What about the “transfection efficiency (β-galactosidase expression) improved by a factor, relative to DMRIE:DOPE (1:1)” value [3] of the same compound?
**A.** about 5

**Q.** And the “organ distribution of CAT expression” value (BALB/c mouse; amphiphile/DNA molar ratio less than about 0.5, DNA 0.9 mM)?
**A.** strongly weighted toward the lung

**Q.** And the “organ distribution of CAT expression” value (BALB/c mouse; amphiphile/DNA ratio 1.25, DNA 0.9 mM)?
**A.** substantial expression was found in the heart

**Q.** For `CC(C)CCCC(C)C1CCC2C3CC=C4CC(OC(=O)N(CCCN)CCCCNCCCN)CCC4(C)C3CCC12C` (centres unmarked) [amphiphile No. 67], which “transacylation with DOPE” value ([4]; amphiphile and co-lipid dried down to a thin film from chloroform) is on record?
**A.** transacylation also occurs

**Q.** And the “transacylation with DOPE” value ([4]; amphiphile prepared as mono, di, or tri acetate salt)?
**A.** slow transacylations

**Q.** What about the “transacylation with DOPE” value ([4]; mixture of amphiphile and DOPE in chloroform solvent) of the same compound?
**A.** does not appear to participate in such reactions

**Q.** What about the “transfection enhancement in relation to N^1-thermospermine cholesteryl carbamate and N^1-spermidine cholesteryl carbamate” value (lungs of balb/c mice; 4 mM DNA (as nucleotide), 1 mM amphiphile, 2 mM co-lipid, procedures of Example 3 part B) of the same compound?
**A.** at least 30 fold

**Q.** What about the transgene expression ([5]; amphiphile as free base, with DOPE (zwitterion)) of the same compound?
**A.** best

**Q.** What about the transgene expression activity ([5]; amphiphile as mono and di acetate salts) of the same compound?
**A.** decreased step-wise

**Q.** And the transgene expression activity ([5]; amphiphile as tri-acetate salt)?
**A.** minimal
